Test [1] deals with Enterococcus faecalis ATCC 19433. Description: Inhibition of bacterial growth in culture, spiral gradient endpoint assay (MIC). Format: cell-based. As to conditions: Enterococcus faecalis, ATCC 19433 /, 16 h, read-out: MIC E. faecalis, Mueller-Hinton II agar, 16 h at 37° C. The source says: J. Microbiol. Meths. […] Int. J. Exp. Clin. Chemother. […] Adv.
Test [2] concerns Escherichia coli D21f2tolC. Description: microbe, parasite or virus in culture. The note with it: 16 h, read-out: MIC E. coli D21f2tolC, Mueller-Hinton II agar, 16 h at 37° C.
Test [3] has as its system Staphylococcus aureus ATCC 12600. Description: Inhibition of bacterial growth in culture, spiral gradient endpoint assay (MIC). The note with it: Staphylococcus aureus, ATCC12600, 16 h, read-out: MIC S. aureus 12600, Mueller-Hinton II agar, 16 h at 37° C.

Values after ≈ are worked out from the molar mass of the structure shown.

As for `O=C(c1c(O)cc(O)cc1O)C1CC1c1ccc(Oc2ccc(Cl)cc2Cl)cc1` (stereo not drawn) [Example 29, (2-(4-(2,4-dichlorophenoxy)phenyl)cyclopropyl)(2,4,6-trihydroxyphenyl) methanone], the MIC was 2.4 µg/mL (≈ 5.56 µM) in test [1], 1.5 µg/mL (≈ 3.48 µM) in test [2] and 1.5 µg/mL (≈ 3.48 µM) in test [3].
Regarding `Cc1cc(Oc2ccccc2)ccc1/C=C/C(=O)c1c(O)cc(O)cc1O` [Example 31, (E)-3-(2-methyl-4-phenoxyphenyl)-1-(2,4,6-trihydroxyphenyl)prop-2-en-1-one], the MIC in test [1] worked out at 9.6 µg/mL (≈ 26.5 µM); in test [2] it was 1.4 µg/mL (≈ 3.86 µM); in test [3], 5.8 µg/mL (≈ 16 µM).
For `O=C(/C=C/c1ccc(Oc2ccc(F)cc2)cc1C(F)(F)F)c1c(O)cc(O)cc1O` [Example 32, (E)-3-(4-(4-fluorophenoxy)-2-(trifluoromethyl)phenyl)-1-(2,4,6-trihydroxyphenyl)prop-2-en-1-one], in that order: 5.7 µg/mL (≈ 13.1 µM), 2.1 µg/mL (≈ 4.83 µM) and 3.5 µg/mL (≈ 8.06 µM).
For `Cc1cc(Oc2ccccc2)ccc1CCC(=O)c1c(O)cc(O)cc1O` [Example 33, 3-(2-methyl-4-phenoxyphenyl)-1-(2,4,6-trihydroxyphenyl)propan-1-one], in that order: 7.5 µg/mL (≈ 20.6 µM), 1.6 µg/mL (≈ 4.39 µM) and 4.6 µg/mL (≈ 12.6 µM).
For `Cc1cc(Oc2ccc(F)cc2)ccc1CCC(=O)c1c(O)cc(O)cc1O` [Example 34, 3-(4-(4-fluorophenoxy)-2-methylphenyl)-1-(2,4,6-trihydroxyphenyl)propan-1-one], in that order: 5.2 µg/mL (≈ 13.6 µM), 1.1 µg/mL (≈ 2.88 µM) and 3.6 µg/mL (≈ 9.41 µM).
With `O=C(CCc1ccc(Oc2ccc(C(F)(F)F)cc2)cc1)c1c(O)cc(O)cc1O` [Example 35, 3-(4-(4-(trifluoromethyl)phenoxy)phenyl)-1-(2,4,6-trihydroxyphenyl)propan-1-one], the MIC came to 5.1 µg/mL (≈ 12.2 µM) in test [1], 1.3 µg/mL (≈ 3.11 µM) in test [2] and 3.5 µg/mL (≈ 8.37 µM) in test [3].
On to `Cc1cc(Oc2ccc(F)cc2)ccc1C1CC1C(=O)c1c(O)cc(O)cc1O` (stereo not drawn) [Example 36, (2-(4-(4-fluorophenoxy)-2-methylphenyl)cyclopropyl)(2,4,6-trihydroxyphenyl)methanone], for which the figures for the MIC in test [1], in test [2] and in test [3] were 4.4 µg/mL (≈ 11.2 µM), 1.7 µg/mL (≈ 4.31 µM) and 2.4 µg/mL (≈ 6.09 µM), respectively.
For `O=C(CCc1ccc(Oc2ccc(F)cc2)cc1C(F)(F)F)c1c(O)cc(O)cc1O` [Example 37, 3-(4-(4-fluorophenoxy)-2-(trifluoromethyl)phenyl)-1-(2,4,6-trihydroxyphenyl)propan-1-one], in that order: 4.4 µg/mL (≈ 10.1 µM), 2.4 µg/mL (≈ 5.5 µM) and 3.5 µg/mL (≈ 8.02 µM).
Turning to `COc1ccc(C2CC2C(=O)c2c(O)cc(O)cc2O)cc1` (stereo not drawn) [Example 38, (2-(4-methoxyphenyl)cyclopropyl)(2,4,6-trihydroxyphenyl)methanone], the MIC in test [1], in test [2] and in test [3] was more than 40 µg/mL each time.
For the compound `Cc1cc(Oc2ccccc2)ccc1C1CC1C(=O)c1c(O)cc(O)cc1O` (stereo not drawn) [Example 39, (2-(2-methyl-4-phenoxyphenyl)cyclopropyl)(2,4,6-trihydroxyphenyl)methanone], the MIC in test [1] was determined as 4.1 µg/mL (≈ 10.9 µM); in test [2], 1.6 µg/mL (≈ 4.25 µM); in test [3], 3.6 µg/mL (≈ 9.56 µM).
For `Cc1cc(Oc2ccccc2)ccc1/C=C/C(=O)c1c(O)cc(O)c(Cl)c1O` [Example 40, (E)-1-(3-chloro-2,4,6-trihydroxyphenyl)-3-(2-methyl-4-phenoxyphenyl)prop-2-en-1-one], in that order: more than 40 µg/mL, 9.4 µg/mL (≈ 23.7 µM) and more than 40 µg/mL.
On to `Cc1cc(Oc2ccccc2)ccc1CCC(=O)c1c(O)cc(O)c(Cl)c1O` [Example 41, 1-(3-chloro-2,4,6-trihydroxyphenyl)-3-(2-methyl-4-phenoxyphenyl)propan-1-one], for which the MIC amounted to 19 µg/mL (≈ 47.6 µM) in test [1], 9.4 µg/mL (≈ 23.6 µM) in test [2] and 19 µg/mL (≈ 47.6 µM) in test [3].
In the case of `Cc1cc(Oc2ccccc2)ccc1C1CC1C(=O)c1c(O)cc(O)c(Cl)c1O` (stereo not drawn) [Example 42, (3-chloro-2,4,6-trihydroxyphenyl)(2-(2-methyl-4-phenoxyphenyl)cyclopropyl)methanone], the MIC in test [1] amounted to 16 µg/mL (≈ 38.9 µM); in test [2] it was 10 µg/mL (≈ 24.3 µM); in test [3], 14 µg/mL (≈ 34.1 µM).
For `O=C(c1c(O)cc(O)cc1O)C1CC1c1ccc(Oc2ccc(F)cc2F)cc1` (stereo not drawn) [Example 43, (2-(4-(2,4-difluorophenoxy)phenyl)cyclopropyl)(2,4,6-trihydroxyphenyl) methanone], in that order: 8.4 µg/mL (≈ 21.1 µM), 2.8 µg/mL (≈ 7.03 µM) and 6.6 µg/mL (≈ 16.6 µM).
For the compound `O=C(c1c(O)cc(O)cc1O)C1CC1c1ccc(Oc2ccc(F)cc2)cc1C(F)(F)F` (stereo not drawn) [Example 44, (2-(4-(4-fluorophenoxy)-2-(trifluoromethyl)phenyl)cyclopropyl)(2,4,6-trihydroxyphenyl)methanone], the MIC in test [1] came out at 1.8 µg/mL (≈ 4.01 µM); in test [2] it was 1.5 µg/mL (≈ 3.35 µM); in test [3], 1.5 µg/mL (≈ 3.35 µM).
As to `O=C(CCc1ccc(Oc2ccc(F)cc2)cc1)c1c(O)cc(O)c(Cl)c1O` [Example 45, 1-(3-chloro-2,4,6-trihydroxyphenyl)-3-(4-(4-fluorophenoxy)phenyl)propan-1-one], the MIC in test [1] came to 11 µg/mL (≈ 27.3 µM); in test [2], 5.2 µg/mL (≈ 12.9 µM); in test [3], 9.6 µg/mL (≈ 23.8 µM).
As to `O=C(c1c(O)cc(O)c(Cl)c1O)C1CC1c1ccc(Oc2ccc(F)cc2)cc1` (stereo not drawn) [Example 46, (3-chloro-2,4,6-trihydroxyphenyl)(2-(4-(4-fluorophenoxy)phenyl)cyclopropyl)methanone], the MIC was determined as 12 µg/mL (≈ 28.9 µM) in test [1], 6.6 µg/mL (≈ 15.9 µM) in test [2] and 9.6 µg/mL (≈ 23.1 µM) in test [3].
With `O=C(c1c(O)cc(O)cc1O)C1CC1c1ccc(Cl)cc1C(F)(F)F` (stereo not drawn) [Example 47, (2-(4-chloro-2-(trifluoromethyl)phenyl)cyclopropyl)(2,4,6-trihydroxyphenyl)methanone], the MIC worked out at 9.6 µg/mL (≈ 25.8 µM) in test [1], 4.8 µg/mL (≈ 12.9 µM) in test [2] and 9.6 µg/mL (≈ 25.8 µM) in test [3].
For the compound `O=C(/C=C/c1ccc(Oc2ccc(F)cc2)cc1)c1c(O)cc(O)c(Cl)c1O` [Example 48, (E)-1-(3-chloro-2,4,6-trihydroxyphenyl)-3-(4-(4-fluorophenoxy)phenyl)prop-2-en-1-one], the MIC in test [1] was more than 40 µg/mL; in test [2], 20 µg/mL (≈ 49.9 µM); in test [3] it was more than 40 µg/mL.
Regarding `O=C(CCc1ccc(Oc2ccc(F)cc2)cc1C(F)(F)F)c1c(O)cc(O)c(Cl)c1O` [Example 49, 1-(3-chloro-2,4,6-trihydroxyphenyl)-3-(4-(4-fluorophenoxy)-2-(trifluoromethyl)phenyl)propan-1-one], the MIC in test [1], in test [2] and in test [3] was 12 µg/mL (≈ 25.5 µM) each time.
For `Cc1cc(Oc2ccc(F)cc2)ccc1CCC(=O)c1c(O)cc(O)c(Cl)c1O` [Example 50, 1-(3-chloro-2,4,6-trihydroxyphenyl)-3-(4-(4-fluorophenoxy)-2-methylphenyl)propan-1-one], the MIC stood at 18 µg/mL (≈ 43.2 µM) in test [1], 19 µg/mL (≈ 45.6 µM) in test [2] and 16 µg/mL (≈ 38.4 µM) in test [3].
For `O=C(c1c(O)cc(O)c(Cl)c1O)C1CC1c1ccc(Oc2ccc(F)cc2)cc1C(F)(F)F` (stereo not drawn) [Example 51, (3-chloro-2,4,6-trihydroxyphenyl)(2-(4-(4-fluorophenoxy)-2-(trifluoromethyl)phenyl)cyclopropyl)methanone] the same measures were 15 µg/mL (≈ 31.1 µM), 16 µg/mL (≈ 33.1 µM) and 11 µg/mL (≈ 22.8 µM).
Turning to `Cc1cc(Oc2ccc(F)cc2)ccc1C1CC1C(=O)c1c(O)cc(O)c(Cl)c1O` (stereo not drawn) [Example 52, (3-chloro-2,4,6-trihydroxyphenyl)(2-(4-(4-fluorophenoxy)-2-methylphenyl)cyclopropyl)methanone], the MIC is 5.2 µg/mL (≈ 12.1 µM) in test [1], 7.5 µg/mL (≈ 17.5 µM) in test [2] and 3.2 µg/mL (≈ 7.46 µM) in test [3].
For `Cc1cc(Cl)ccc1C1CC1C(=O)c1c(O)cc(O)cc1O` (stereo not drawn) [Example 53, (2-(4-chloro-2-methylphenyl)cyclopropyl)(2,4,6-trihydroxyphenyl)methanone] the same measures were 5.3 µg/mL (≈ 16.6 µM), 4.7 µg/mL (≈ 14.7 µM) and 4.7 µg/mL (≈ 14.7 µM).
For `O=C(c1c(O)cc(O)c(Cl)c1O)C1CC1c1ccc(Cl)cc1C(F)(F)F` (stereo not drawn) [Example 54, (3-chloro-2,4,6-trihydroxyphenyl)(2-(4-chloro-2-(trifluoromethyl)phenyl)cyclopropyl)methanone] the same measures were 17 µg/mL (≈ 41.8 µM), 17 µg/mL (≈ 41.8 µM) and 12 µg/mL (≈ 29.5 µM).
For `O=C(c1c(O)cc(O)c(Cl)c1O)C1CC1c1ccc(Cl)cc1` (stereo not drawn) [Example 55, (3-chloro-2,4,6-trihydroxyphenyl)(2-(4-chlorophenyl)cyclopropyl)methanone], in that order: 22 µg/mL (≈ 64.9 µM), more than 40 µg/mL and 17 µg/mL (≈ 50.1 µM).
For the compound `Cc1cc(Cl)ccc1C1CC1C(=O)c1c(O)cc(O)c(Cl)c1O` (stereo not drawn) [Example 56, (3-chloro-2,4,6-trihydroxyphenyl)(2-(4-chloro-2-methylphenyl)cyclopropyl)methanone], the MIC is 22 µg/mL (≈ 62.3 µM) in test [1], more than 40 µg/mL in test [2] and 17 µg/mL (≈ 48.1 µM) in test [3].
Regarding `O=C(c1c(O)cc(O)cc1O)C1CC1c1ccc(C(F)(F)F)cc1C(F)(F)F` (stereo not drawn) [Example 57, (2-(2,4-bis(trifluoromethyl)phenyl)cyclopropyl)(2,4,6-trihydroxyphenyl)methanone], the MIC came to 5.7 µg/mL (≈ 14 µM) in test [1], 3.5 µg/mL (≈ 8.61 µM) in test [2] and 4.3 µg/mL (≈ 10.6 µM) in test [3].
With `O=C(c1c(O)cc(O)cc1O)C1CC1c1ccc(C(F)(F)F)cc1` (stereo not drawn) [Example 58, (2-(4-(trifluoromethyl)phenyl)cyclopropyl)(2,4,6-trihydroxyphenyl)methanone], the MIC in test [1] was found to be 12 µg/mL (≈ 35.5 µM); in test [2], 3.9 µg/mL (≈ 11.5 µM); in test [3], 10 µg/mL (≈ 29.6 µM).
